Assay results as given in patent publication US20260250412A1, “COMBINATION OF ANTIBODY-DRUG CONJUGATE AND ANTI-PD-1 ANTIBODY, AND USE THEREOF” (GENEQUANTUM HEALTHCARE (SUZHOU) CO., LTD., priority 2023, published 2026).

Experiments:
[1] = test system: human gastric cancer cells NCI-N87; assay: Cell proliferation, CellTiter Glo, 96 h, NCI-N87; assay type: cell-based; conditions: NCI-N87, 96 h
Procedure: Two thousand human pharyngeal squamous cells carcinoma FaDu with high TROP2 expression were seeded into 96-well plates in 100 μL of culture medium per well, and incubated overnight in a cell incubator at 37° C. and 5% CO2. […] A positive control group was set: 100 μL Puromycin at a concentration of 10 μg/mL was added to each well. A negative control group was set: 100 μL of complete medium of FaDu cells was added to each well. After the administration was completed, the cells were moved to the incubator and incubated for 96 h. The 96-well plate was removed from the 37° C. cell incubator and equilibrated to room temperature for 30 minutes. After the medium was discarded, 100 μL of DMEM and 50 μL of CellTiter Glo reagent were added to each well, and the cells were shaken in the dark at 200 rpm for 15 minutes, and the luminescent signal reflecting cell viability was detected by a microplate reader. The inhibitory effects of the tested drugs on the proliferation of human pharyngeal squamous cell carcinoma FaDu are as shown in FIG. 2 and Table 7.
The human pharyngeal squamous cells carcinoma FaDu in Example 2.1.1 were replaced with human gastric cancer cells NCI-N87 (100 μL per well containing 5000 cells), and the inhibitory effect of ADC-7 was evaluated using the same process.

[2] = test system: human breast cancer cells MDA-MB-468; assay: Cell proliferation, CellTiter Glo, 96 h, MDA-MB-468; assay type: cell-based; conditions: MDA-MB-468, 96 h
[3] = test system: MDA-MB-468 mouse xenograft tumor; assay: In vivo efficacy, MDA-MB-468 mouse xenograft tumor; set-up: species or system BALB/c Nude mice; conditions: 4.5 mg/kg, intravenously
Procedure: The MDA-MB-468 tumor cells (ATCC, HTB-132) were maintained in vitro as a monolayer culture in L-15 medium supplemented with 10% fetal bovine serum and 1% Antibiotic-Antimycotic at 37° C. in an atmosphere of 0% CO2 in air. The cells growing in an exponential growth phase will be harvested and counted for tumor inoculation. For in vivo anti-tumor efficacy study, 10×10^6 MDA-MB-468 human breast cancer cells (Trop2 positive) in 0.2 mL of PBS with Matrigel (1:1) were inoculated subcutaneously in the right flank in BALB/c Nude mice. […] The tumor volume was measured twice weekly with a caliper. T/C and TGI values were calculated using tumor volume.

[4] = test system: human pharyngeal squamous cells carcinoma FaDu; assay: Cell proliferation, CellTiter Glo, 96 h, FaDu; assay type: cell-based
Procedure: (§1) A positive control group was set: 100 μL Puromycin at a concentration of 10 μg/mL was added to each well. […] After the administration was completed, the cells were moved to the incubator and incubated for 96 h. The 96-well plate was removed from the 37° C. cell incubator and equilibrated to room temperature for 30 minutes. After the medium was discarded, 100 μL of DMEM and 50 μL of CellTiter Glo reagent were added to each well, and the cells were shaken in the dark at 200 rpm for 15 minutes, and the luminescent signal reflecting cell viability was detected by a microplate reader.

[5] = test system: MC38-hTROP2 colon carcinoma; assay: In vivo efficacy, MC38-hTROP2 colon carcinoma syngeneic CDX model; set-up: species or system C57BL/6J mice; conditions: Table 22, monotherapy 3 mg/kg
Procedure: Objective: To evaluate the in vivo anti-tumor efficacy of the combination of ADC drug ADC2 with Anti-mPD-1 in mice bearing colon carcinoma Trop2-high CDX model.
I. MC38-hTROP2 cells (Biocytogen) in exponential growth stage were collected and counted for tumor inoculation. 0.5×10^6 cells in 0.1 mL of PBS were used to subcutaneously inject into the right flank of SPF female C57BL/6J mice aged 6-8 weeks.
II. 6 days after inoculation, the tumor diameter was measured with a caliper and the tumor volume was calculated according to the formula V=0.5 a×b^2 (wherein a is the long diameter of the tumor and b is the short diameter of the tumor). When the mean tumor volume was about 100-300 mm^3, the mice were randomized into vehicle group, ADC2 3 mg/kg group, DS1062a 3 mg/kg group, Anti-mPD-1 (Bio X cell, 825822J1) 1 mg/kg group, ADC2+Anti-mPD-1 combination group and DS1062a+Anti-mPD-1 combination group. Each group includes 6 mice. The day of first administration is defined as day 0. Mice in the vehicle group were given the solvent of ADC2 and the solvent of Anti-mPD-1 with the same frequency and administration route. The tumor volume of mice in each group was measured twice a week.

[6] = test system: human pancreatic cancer cells BxPC-3; assay: Cell proliferation, CellTiter Glo, 96 h, BxPC-3; assay type: cell-based; conditions: BxPC-3, 96 h
Procedure: as §1

[7] = test system: Trop2-positive cells BxPC-3 and Trop2-negative HepG2 cells; assay: Bystander killing in BxPC-3/HepG2 co-culture assay (BxPC-3:HepG2=2:1); assay type: cell-based, human
Procedure: After the treatment, the cells were moved to the incubator and incubated for 96 h. After the incubation, cells were digested, and washed once with 1×PBS, then transferred to a flow tube, and centrifuged at 2000 rpm for 3 min. The supernatant was then discarded, and the cell amount and cell viability were detected. […] The cells were washed with 1×PBS, the supernatant was discarded after centrifugation, 200 μL of 5 μg/mL human IgG Fe antibody was added, and the resulting cells were continued to incubate at 4° C. for 30 min after mixing. Finally, the cells were washed with 1×PBS, the supernatant was discarded after centrifugation, and the cells were resuspended in PBS, detected by flow cytometry and analyzed by FlowJo software.

[8] = test system: Trop2 positive cancer cells NCI-N87; assay: Cytotoxicity assay, CellTiter-Glo, 168 h, NCI-N87; assay type: cell-based, human
Procedure: In brief, 3000 to 5000 cells were plated in 96-well plates, and cells were able to attach overnight. Cells were treated with indicated drugs with various concentrations for 168 h. Cell viabilities were examined by CellTiter-Glo® Luminescent Cell Viability Assay, and percentage of cell viability was calculated.

[9] = Table 6, same process as effect example 1.2

DS1062a
inhibition of proliferation (in words) [1]: could inhibit the proliferation of NCI-N87 cells
IC50 ([1]; Table 10): 1.26 nM
inhibition of proliferation (in words) [2]: could inhibit the proliferation of MDA-MB-468 cells
IC50 ([2]; Table 9): 2.5 nM
Tumor volume (mm^3) on day 35 [3]: 9 ± 9 mm^3
T/C (%) ([3]; day 35): 1.35%
TGI (%) ([3]; day 35): 136.06%
inhibition of proliferation (in words) [4]: could inhibit the proliferation of FaDu cells
IC50 ([4]; Table 7): 0.551 nM
TGI (%) ([5]; day 28): 12.8%
Tumor volume (mm^3) ([5]; end day (day 28), mean): 1415 mm^3
inhibition of proliferation (in words) [6]: could inhibit the proliferation of BxPC-3 cells
IC50 ([6]; Table 8): 0.584 nM
Amount of cells (10^4) BxPC-3 ([7]; Table 5, 10 nM): 12.25 10^4
Amount of cells (10^4) HepG2 ([7]; Table 5, 10 nM): 144.75 10^4
Cell proportion (%) BxPC-3 ([7]; Table 5, 10 nM): 7.8%
Cell proportion (%) HepG2 ([7]; Table 5, 10 nM): 92.2%
Number of viable cells (10^4) ([7]; Table 5, 10 nM, whole co-culture): 157.0 10^4
Amount of cells (10^4) BxPC-3 [7, 9]: 12.25 10^4
Amount of cells (10^4) HepG2 [7, 9]: 144.75 10^4
Cell proportion (%) BxPC-3 [7, 9]: 7.8%
Cell proportion (%) HepG2 [7, 9]: 92.2%
Number of viable cells (10^4) ([7]; Table 6, same process as effect example 1.2, whole co-culture): 157.0 10^4
bystander killing effect (in words) ([7]; effect example 1.3): had bystander killing effects
IC50 [8]: 2.1 nM
